Assay results from patent US12649751B2 (Arcus Biosciences, Inc., priority 2022, dated 2026).
Where two headings read alike, the source gives them in different places.

Experiments:
HPK1 = HPK1 (Homo sapiens, UniProt Q92918); test: HPK1 Biochemical Assay (ADP-Glo luminescence; low ATP 10 μM or high ATP 200 μM); conditions: HPK1 ADP-Glo assay
[1] = system: p-SLP-76 (Ser376) in Jurkat cells; test: pSLP76 Cellular Assay (AlphaLISA SureFire Ultra p-SLP-76 (Ser376), anti-CD3 activated Jurkat cells); type: cell-based; conditions: Homo sapiens; pSLP76 (Ser376) AlphaLISA, anti-CD3 activated Jurkat cells; read-out: Cellular Potency
Outline: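 Jurkat cells, serum-starved overnight in Opti-MEM then in HBSS, preincubated 1 h at 37 °C with 22-point 2-fold compound dilutions, then stimulated with anti-CD3 (0.025 mg/ml added solution) for 45 min. Lysate p-SLP-76 (Ser376) measured by AlphaLISA at 570 nm; IC50 from 4-parameter logistic fit.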

[2] = high ATP (200 μM ATP, 5 nM HPK1), read-out: Biochemical Potency (high ATP)
[3] = low ATP (10 μM ATP, 2 nM HPK1), read-out: Biochemical Potency (low ATP)

HPK1, sequence (Q92918 whole entry, species assumed): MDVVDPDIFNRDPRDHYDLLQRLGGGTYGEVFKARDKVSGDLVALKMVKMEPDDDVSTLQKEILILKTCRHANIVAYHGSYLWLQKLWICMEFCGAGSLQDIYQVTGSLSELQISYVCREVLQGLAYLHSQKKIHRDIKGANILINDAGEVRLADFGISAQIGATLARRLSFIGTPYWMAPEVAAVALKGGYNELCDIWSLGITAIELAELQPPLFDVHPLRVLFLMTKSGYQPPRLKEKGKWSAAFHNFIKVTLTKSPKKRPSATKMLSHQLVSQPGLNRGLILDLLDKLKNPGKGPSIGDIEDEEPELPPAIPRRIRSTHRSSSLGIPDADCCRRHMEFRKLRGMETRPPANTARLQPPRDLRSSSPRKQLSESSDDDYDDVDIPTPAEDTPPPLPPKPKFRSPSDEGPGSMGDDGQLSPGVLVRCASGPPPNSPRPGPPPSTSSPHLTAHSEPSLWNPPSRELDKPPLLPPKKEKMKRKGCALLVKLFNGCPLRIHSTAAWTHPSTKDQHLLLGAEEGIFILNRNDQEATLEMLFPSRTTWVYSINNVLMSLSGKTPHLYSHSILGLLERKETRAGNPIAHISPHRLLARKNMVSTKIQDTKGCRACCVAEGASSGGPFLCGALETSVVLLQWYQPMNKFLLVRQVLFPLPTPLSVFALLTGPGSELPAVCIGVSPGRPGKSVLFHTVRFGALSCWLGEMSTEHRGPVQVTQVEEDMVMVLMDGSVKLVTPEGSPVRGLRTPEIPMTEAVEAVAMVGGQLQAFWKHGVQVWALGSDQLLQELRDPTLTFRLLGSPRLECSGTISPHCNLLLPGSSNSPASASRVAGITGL

CC[C@@H]1COCCN1c1cc(-c2nc3cc(Nc4cc(C)nc(N5C[C@@H]6C[C@H]5CN6CC)n4)ncc3s2)ccn1 [Example 475]
IC50 (HPK1; [2]): < 100 nM | IC50 [1]: < 100 nM

Cc1cc(Nc2cc3nc(-c4cncc(N5CCOC[C@H]5C)c4)sc3cn2)nc(N2C[C@@H]3C[C@H]2CN3CCO)n1 [Example 476]
IC50 (HPK1; [2]): < 100 nM | IC50 [1]: < 100 nM

Cc1cc(Nc2cc3nc(-c4cncc(N5CCOCC5)c4)sc3cn2)nc(N2C[C@@H]3C[C@H]2CN3CCO)n1 [Example 477]
IC50 (HPK1; [2]): < 100 nM | IC50 [1]: 100 to 1000 nM

Cc1cc(Nc2cc3nc(-c4ccnc(N5CCS(=O)(=O)CC5)c4)sc3cn2)nc(N2C[C@@H]3C[C@H]2CN3C)n1 [Example 478]
IC50 (HPK1; [2]): < 100 nM | IC50 [1]: 100 to 1000 nM

Cc1cc(Nc2cc3nc(-c4cccc(N5CC(F)C5)c4)sc3cn2)nc(N2C[C@@H]3C[C@H]2CN3C)n1 [Example 479]
IC50 (HPK1; [2]): < 100 nM | IC50 [1]: 100 to 1000 nM

Cc1cc(Nc2cc3nc(-c4ccnc(C5CCOCC5)c4)sc3cn2)nc(N2C[C@@H]3C[C@H]2CN3C)n1 [Example 480]
IC50 (HPK1; [2]): < 100 nM | IC50 [1]: 100 to 1000 nM

Cc1cc(Nc2cc3nc(-c4ccncc4O[C@H]4CCOC4)sc3cn2)nc(N2C[C@@H]3C[C@H]2CN3C)n1 [Example 481]
IC50 (HPK1; [2]): < 100 nM | IC50 [1]: 1000 to 5000 nM

Cc1cc(Nc2cc3nc(-c4ccnc(O[C@H]5CCOC5)c4)sc3cn2)nc(N2C[C@@H]3C[C@H]2CN3C)n1 [Example 482]
IC50 (HPK1; [2]): < 100 nM | IC50 [1]: 1000 to 5000 nM

CCN1C[C@@H]2C[C@H]1CN2c1nc(C)cc(Nc2cc3nc(O[C@@H](C)c4ccccc4)sc3cn2)n1 [Example 483]
IC50 (HPK1; [2]): < 100 nM | IC50 [1]: 100 to 1000 nM

CCN1C[C@@H]2C[C@H]1CN2c1nc(C)cc(Nc2cc3nc(Oc4cccnc4)sc3cn2)n1 [Example 484]
IC50 (HPK1; [2]): < 100 nM | IC50 [1]: < 100 nM

CCN1C[C@@H]2C[C@H]1CN2c1nc(C)cc(Nc2cc3nc(O[C@H](C)c4c(Cl)ccc(F)c4Cl)sc3cn2)n1 [Example 485]
IC50 (HPK1; [2]): < 100 nM | IC50 [1]: 100 to 1000 nM

Fc1cccc(F)c1-c1nc2cc(Nc3cc4c(cn3)CCNC4)ncc2s1 [Example 486]
IC50 (HPK1; [3]): 100 to 1000 nM | IC50 [1]: 5000 to 25000 nM

Cc1cc(Nc2cc3nc(-c4cccc(C(=O)N(C)C)c4)sc3cn2)nc(N2C[C@@H]3C[C@H]2CN3[C@H]2CCOC2)n1 [Example 487]
IC50 (HPK1; [2]): < 100 nM | IC50 [1]: < 100 nM

Cc1cc(Nc2cc3nc(-c4cccc(C(=O)N(C)C)c4)sc3cn2)nc(N2C[C@@H]3C[C@H]2CN3C[C@@H]2CCOC2)n1 [Example 488]
IC50 (HPK1; [2]): < 100 nM | IC50 [1]: 100 to 1000 nM

CCOCCN1C[C@@H]2C[C@H]1CN2c1nc(C)cc(Nc2cc3nc(-c4cccc(C(=O)N(C)C)c4)sc3cn2)n1 [Example 489]
IC50 (HPK1; [2]): < 100 nM | IC50 [1]: 100 to 1000 nM

Cc1cc(Nc2cc3nc(-c4cccnc4)sc3cn2)nc(N2C[C@@H]3C[C@H]2CN3Cc2ccccc2)n1 [Example 490]
IC50 (HPK1; [2]): < 100 nM | IC50 [1]: 100 to 1000 nM

Cc1cc(Nc2cc3nc(-c4cccc(C(=O)N(C)C)c4)sc3cn2)nc(N2C[C@@H]3C[C@H]2CN3CCOC(C)C)n1 [Example 492]
IC50 (HPK1; [2]): < 100 nM | IC50 [1]: 100 to 1000 nM

Cc1cc(Nc2cc3nc(-c4cccc(C(=O)N(C)C)c4)sc3cn2)nc(N2C[C@@H]3C[C@H]2CN3Cc2ccccn2)n1 [Example 493]
IC50 (HPK1; [2]): < 100 nM | IC50 [1]: 100 to 1000 nM

Cc1cc(Nc2cc3nc(-c4cccc(C(=O)N(C)C)c4)sc3cn2)nc(N2C[C@@H]3C[C@H]2CN3Cc2cnn(C)c2)n1 [Example 494]
IC50 (HPK1; [2]): < 100 nM | IC50 [1]: 100 to 1000 nM

CC(=O)N(C)CCN1C[C@@H]2C[C@H]1CN2c1nc(C)cc(Nc2cc3nc(-c4cccc(C(=O)N(C)C)c4)sc3cn2)n1 [Example 495]
IC50 (HPK1; [2]): < 100 nM | IC50 [1]: 100 to 1000 nM

Cc1cc(Nc2cc3nc(-c4cccc(C(=O)N(C)C)c4)sc3cn2)nc(N2C[C@@H]3C[C@H]2CN3Cc2ccccc2)n1 [Example 496]
IC50 (HPK1; [2]): < 100 nM | IC50 [1]: < 100 nM

Cc1cc(Nc2cc3nc(-c4cccc(C(=O)N(C)C)c4)sc3cn2)nc(N2C[C@@H]3C[C@H]2CN3Cc2cccnc2)n1 [Example 497]
IC50 (HPK1; [2]): < 100 nM | IC50 [1]: 100 to 1000 nM

Cc1cc(Nc2cc3nc(-c4cccc(C(=O)N(C)C)c4)sc3cn2)nc(N2C[C@@H]3C[C@H]2CN3CCN(C)S(C)(=O)=O)n1 [Example 498]
IC50 (HPK1; [2]): 100 to 1000 nM | IC50 [1]: 1000 to 5000 nM

Cc1cc(Nc2cc3nc(-c4cnn(C)c4)sc3cn2)nc(N2C[C@@H]3C[C@H]2CN3C[C@@H](C)O)n1 [Example 499]
IC50 (HPK1; [2]): < 100 nM | IC50 [1]: < 100 nM

Cc1cc(Nc2cc3nc(-c4cccc(S(=O)(=O)C5CC5)c4)sc3cn2)nc(N2C[C@@H]3C[C@H]2CN3CCO)n1 [Example 500]
IC50 (HPK1; [2]): < 100 nM | IC50 [1]: < 100 nM

Cc1cc(Nc2cc3nc(-c4cccc(S(=O)(=O)CC5CC5)c4)sc3cn2)nc(N2C[C@@H]3C[C@H]2CN3CCO)n1 [Example 501]
IC50 (HPK1; [2]): < 100 nM | IC50 [1]: < 100 nM

Cc1cc(Nc2cc3nc(-c4cccc(C(=O)N(C)C)c4)sc3cn2)nc(N2C[C@@H]3C[C@H]2CN3CCOCCO)n1 [Example 502]
IC50 (HPK1; [2]): < 100 nM | IC50 [1]: 100 to 1000 nM

Cc1cc(Nc2cc3nc(-c4cnn(CC5CC5)c4)sc3cn2)nc(N2C[C@@H]3C[C@H]2CN3CC(C)(C)O)n1 [Example 503]
IC50 (HPK1; [2]): < 100 nM | IC50 [1]: 100 to 1000 nM

CCN(CC)C(=O)c1cccc(-c2nc3cc(Nc4cc(C)nc(N5C[C@@H]6C[C@H]5CN6CCO)n4)ncc3s2)c1 [Example 504]
IC50 (HPK1; [2]): < 100 nM | IC50 [1]: < 100 nM

CCN(C)C(=O)c1cccc(-c2nc3cc(Nc4cc(C)nc(N5C[C@@H]6C[C@H]5CN6CCO)n4)ncc3s2)c1 [Example 505]
IC50 (HPK1; [2]): < 100 nM | IC50 [1]: < 100 nM

COCCN1C[C@@H]2C[C@H]1CN2c1nc(C)cc(Nc2cc3nc(-c4cccc(C(=O)N(C)C)c4)sc3cn2)n1 [Example 506]
IC50 (HPK1; [2]): < 100 nM | IC50 [1]: 100 to 1000 nM

Cc1cccnc1-c1nc2cc(Nc3cc(C4CCC(O)CC4)nc(N4C[C@@H]5C[C@H]4CN5C)n3)ncc2s1 (stereo partly shown) [Example 507]
IC50 (HPK1; [2]): < 100 nM | IC50 [1]: 100 to 1000 nM

c1cnn(-c2nc3cc(Nc4cnc(C5CCOCC5)c(N5C[C@@H]6C[C@H]5CN6)n4)ncc3s2)c1 [Example 508]
IC50 (HPK1; [2]): < 100 nM | IC50 [1]: < 100 nM

CC(C)(O)c1cccc(-c2nc3cc(Nc4cnc(C5CCOCC5)c(N5C[C@@H]6C[C@H]5CN6)n4)ncc3s2)c1 [Example 509]
IC50 (HPK1; [2]): < 100 nM | IC50 (HPK1; [3]): < 100 nM | IC50 [1]: < 100 nM

Cc1cccnc1-c1nc2cc(Nc3cnc(C4CCOCC4)c(N4C[C@@H]5C[C@H]4CN5)n3)ncc2s1 [Example 510]
IC50 (HPK1; [2]): < 100 nM | IC50 (HPK1; [3]): < 100 nM | IC50 [1]: < 100 nM

CCN1C[C@@H]2C[C@H]1CN2c1nc(C)cc(Nc2cc3nc(-c4cccc(C(=O)N5CCC[C@@H](C)C5)c4)sc3cn2)n1 [Example 511]
IC50 (HPK1; [2]): < 100 nM | IC50 [1]: 100 to 1000 nM

CCN1C[C@@H]2C[C@H]1CN2c1nc(C)cc(Nc2cc3nc(-c4cccc(C(=O)N5CCC[C@H](C)C5)c4)sc3cn2)n1 [Example 512]
IC50 (HPK1; [2]): < 100 nM | IC50 [1]: < 100 nM
